Measurements from patent publication US6623933B1 (priority 1999, dated 2003).
Read-outs that look alike come from different tables or passages of the source.

Tests used:
NR1010/NR2A = NR1010/NR2A (Rattus norvegicus, UniProt P35439+Q00959); set-up: agonist nHill / agonist Emax: dose or concentration left out as unconfirmed; conditions: NR1010/NR2A
NR1001/NR2A = NR1001/NR2A (Rattus norvegicus, UniProt P35439+Q00959); set-up: agonist Emax: dose or concentration left out as unconfirmed; conditions: NR1001/NR2A
NR1000/NR2A = NR1000/NR2A (Rattus norvegicus, UniProt P35439+Q00959); set-up: agonist Emax: dose or concentration left out as unconfirmed; conditions: NR1000/NR2A
NR1111/NR2A = NR1111/NR2A (Rattus norvegicus, UniProt P35439+Q00959); set-up: agonist Emax: dose or concentration left out as unconfirmed; conditions: NR1111/NR2A
NR1101/NR2A = NR1101/NR2A (Rattus norvegicus, UniProt P35439+Q00959); set-up: agonist Emax: dose or concentration left out as unconfirmed; conditions: NR1101/NR2A
NR1/NR2B (NR1100) = NR1/NR2B (NR1100) (Rattus norvegicus, UniProt P35439+Q00960)
From the text: (§5) Plasmids containing the NR1100 (NR1G) and NR2A cDNA inserts were kindly provided by Dr. Nakanishi (Kyoto University Faculty of Medicine, Kyoto, Japan). Plasmids containing the NR2B, NR2C and NR2D cDNA inserts were kindly provided by Dr. P. Seeburg (Heidelberg University, Heidelberg, Germany). Plasmids were linearized with appropriate restriction enzyme prior to in vitro transcription using the Message Machine kit (Ambion, Inc., Austin, Tex.).
(§6) Female, oocyte-positive Xenopus laevis frogs were purchased from Xenopus I (Dexter, Mich.). […] Oocytes were injected with 50 nL of RNA solutions using an electronic microinjector (Drummond Inc., Broomall, Pa.). […] The injected oocytes were used for experiments following 1-5 days of incubation in Barth's solution at 18-20° C.
(§7) The microelectrodes were fabricated from borosilicate glass capillaries with a programmed puller (Sutter Instrument Co., Calif.). Microelectrode resistance was 1-3 MΩ_when filled with 3 M KCl.
(§8) Except where otherwise stated, oocytes were clamped at a holding potential of −70 mV during data acquisition. The membrane current was filtered at 500 Hz and sampled at 100 Hz. Drugs were applied using a gravity-driven external perfusion system. The working volume of the recording chamber was 30 μl and the rate of the perfusion was 50 μl/sec. The drug application lasted 10 sec and was followed by 60 s wash. Data acquisition and external perfusion were controlled using custom-written software implemented in the SuperScope II development environment (GW Instruments, Mass.). All experiments were performed at room temperature of 22-24° C. Peak or steady-state current measurements were normalized and expressed as a fraction of the peak or steady-state control current measurements, which were performed before and after application of every single concentration of agonists or steroids.
(§9) Concentration-response data were analyzed by nonlinear regress ion using the logistic equation Response=Emax/(1+(EC50/c)^nH), where c is concentration, Emaxis the maximum response, nHis the Hill coefficient. The data are presented as mean±SEM. EC50values are averaged as logarithms (De Lean et al., Am. J. Physiol. 235: E97-E102 (1978))±the SEM of the log EC50. […] The pooled data were simultaneously fitted to the logistic equation, either with Emax and EC50 constrained to be identical in the presence and absence of PS, or allowing one or both to vary independently. […] This was regarded as indicating a significant treatment effect of PS, but the change in EC50and Emaxwas not considered significant. […] No attempt was made to test the generally small changes in nHfor statistical significance.

NR1100/NR2A = NR1100/NR2A (Rattus norvegicus, UniProt P35439+Q00959); set-up: agonist nHill / agonist Emax: dose or concentration left out as unconfirmed; conditions: NR1100/NR2A
NR1011/NR2A = NR1011/NR2A (Rattus norvegicus, UniProt P35439+Q00959); set-up: agonist Emax: dose or concentration left out as unconfirmed; conditions: NR1011/NR2A
Sequence of NR1011/NR2A (Q00959 23-1464, other chains not shown): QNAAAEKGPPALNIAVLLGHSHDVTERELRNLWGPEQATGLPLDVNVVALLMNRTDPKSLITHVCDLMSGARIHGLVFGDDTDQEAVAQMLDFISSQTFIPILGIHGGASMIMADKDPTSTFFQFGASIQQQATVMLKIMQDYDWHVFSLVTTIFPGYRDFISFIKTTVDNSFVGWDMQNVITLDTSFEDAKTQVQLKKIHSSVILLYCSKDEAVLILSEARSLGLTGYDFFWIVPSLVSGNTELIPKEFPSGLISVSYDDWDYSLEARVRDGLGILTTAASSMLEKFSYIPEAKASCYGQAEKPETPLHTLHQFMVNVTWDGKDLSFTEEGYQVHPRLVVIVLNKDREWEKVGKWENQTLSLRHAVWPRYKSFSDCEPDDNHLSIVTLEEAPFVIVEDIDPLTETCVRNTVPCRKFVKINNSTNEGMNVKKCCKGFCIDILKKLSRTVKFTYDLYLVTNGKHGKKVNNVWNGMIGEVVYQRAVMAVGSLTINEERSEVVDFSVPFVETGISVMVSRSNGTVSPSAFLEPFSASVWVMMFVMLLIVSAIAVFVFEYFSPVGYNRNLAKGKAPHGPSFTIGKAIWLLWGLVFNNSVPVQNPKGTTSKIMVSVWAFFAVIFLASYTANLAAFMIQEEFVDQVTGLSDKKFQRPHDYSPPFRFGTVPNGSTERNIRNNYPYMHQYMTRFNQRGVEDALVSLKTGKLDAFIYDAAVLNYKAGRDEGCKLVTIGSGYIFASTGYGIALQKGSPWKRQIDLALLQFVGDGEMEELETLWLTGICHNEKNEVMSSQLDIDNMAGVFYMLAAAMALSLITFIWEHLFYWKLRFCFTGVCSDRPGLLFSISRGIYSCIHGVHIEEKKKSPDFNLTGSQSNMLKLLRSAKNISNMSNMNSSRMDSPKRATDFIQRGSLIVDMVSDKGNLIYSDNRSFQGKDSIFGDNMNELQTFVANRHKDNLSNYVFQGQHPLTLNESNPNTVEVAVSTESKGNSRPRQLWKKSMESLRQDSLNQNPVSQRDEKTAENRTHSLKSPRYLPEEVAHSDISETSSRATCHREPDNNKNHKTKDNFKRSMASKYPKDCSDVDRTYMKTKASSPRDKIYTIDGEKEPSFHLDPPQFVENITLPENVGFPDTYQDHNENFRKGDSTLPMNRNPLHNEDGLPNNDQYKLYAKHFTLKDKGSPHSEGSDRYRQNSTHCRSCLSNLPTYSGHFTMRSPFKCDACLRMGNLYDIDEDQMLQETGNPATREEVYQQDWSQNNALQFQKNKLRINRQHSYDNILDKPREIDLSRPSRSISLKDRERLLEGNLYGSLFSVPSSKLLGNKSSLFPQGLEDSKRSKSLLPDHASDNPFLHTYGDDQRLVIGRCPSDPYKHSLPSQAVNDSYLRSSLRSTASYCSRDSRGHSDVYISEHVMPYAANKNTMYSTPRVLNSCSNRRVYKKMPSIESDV

NR1/NR2D (NR1100) = NR1/NR2D (NR1100) (Rattus norvegicus, UniProt P35439+Q62645)
From the text: as §5, §6, §7, §8, §9

NR1/NR2C (NR1100) = NR1/NR2C (NR1100) (Rattus norvegicus, UniProt P35439+Q00961); conditions: NR1/NR2C; for EC50: read-out: agonist EC50
From the text: as §5, §6, §7, §8, §9

NR1/NR2A (NR1100) = NR1/NR2A (NR1100) (Rattus norvegicus, UniProt P35439+Q00959)
Sequence of NR1/NR2A (NR1100) (Q00959 23-1464, other chains not shown): as above
From the text: as §5, §6, §7, §8, §9

[1] = test system: primary cultures of rat hippocampal neurons; assay: NMDA-induced neuronal death, trypan blue exclusion; format: cell-based; conditions: DNQX; 100 μM SR-95531; not shown
Protocol: Principally neuronal cultures were prepared from hippocampal tissue of fetal Sprague-Dawley rats on day 18 of embryonic development, as previously described (Brewer et al., Brain Research 494: 65-74 (1989)). Briefly, hippocampal cells were dissociated by trituration in Ca^2+/Mg^2+-free Hank's basic salt solution (Gibco) supplemented with 4.2 mM bicarbonate, 1 mM sodium pyruvate, 20 mM HEPES, 3 mg/ml bovine serum albumin (BSA). Dissociated cells were then pelleted by centrifugation (500×g, 4 min). […] Cells were then plated onto poly-L-lysine-coated 24-well culture dishes (Nunclon) at a density of 15,000 cell/cm^2 and maintained in a humidified atmosphere containing 5% CO2/95% air at 37° C. After 48 h, nonneuronal cell division was inhibited by a 48 h exposure to 1 μM cytosine arabinoside. Cultures were subsequently maintained in serum-free DMEM plus defined components and were used for experiments 16 to 24 days after plating.
Steroids were dissolved in DMSO (0.5% final concentration), and all treatment media contained 0.5% DMSO. […] Following exposure, cultures were washed 3 times with medium from sister cultures (conditioned medium). After the final wash, steroid or vehicle was reintroduced. Drugs were added to cultures in 25 μl of conditioned medium to yield a final volume of 0.25 ml per well. Except where otherwise noted, final steroid concentration was 100 μM.
The ability of neurons to exclude trypan blue was used to quantitate cell viability (Dawson et al., Proc Natl Acad Sci USA 88: 6368-6371 (1991)). […] Cultures were then fixed with 4% paraformaldehyde in PBS for 30 min, at whichtime the fixative was replaced with PBS. The number of stained and unstained neurons were counted in 4 high-power fields per culture well, using an inverted phase contrast microscope under both bright field and phase contrast settings. Experiments were performed in triplicate, and all assessments were made with the experimenter blind to the treatment of each culture well. Percent cell death is expressed as follows: (number of trypan blue stained neurons)/(total number of neurons)×100%.
All data are expressed as mean±standard error of the mean. Statistical significance was evaluated using 95% confidence limits unless otherwise noted.

GluR1 AMPA receptor = target: T1, GluR1 AMPA receptor (Rattus norvegicus, UniProt P19490); assay: Kainate-induced currents, Xenopus oocytes injected with GluR1 cRNA; format: cell-based; conditions: GluR1; steroid 100 μM; 100 μM kainate; −100 mV
T1 construct: expressed in transfected cells; host or cells: Xenopus oocytes injected with GluR1 cRNA
From the text: (§1) Plasmids were obtained from the following individuals: Dr. Suzanne Zukin (Albert Einstein College of Medicine, Bronx, N.Y.), NR1100; Dr. Shigetada Nakanishi (Kyoto University Faculty of Medicine, Kyoto, Japan), NR2A; Dr. Stephen Heinemann (Salk Institute, San Diego, Calif.), GluR1 (flop), GluR3 (flop), and GluR6. Plasmids were linearized with BamH1 (NR1100), XhoI (NR2A, GluR1, GluR3) or XbaI (GluR6) prior to in vitro transcription with T3 (GluR1, GluR3, GluR6) or T7 (NR1100, NR2A) RNA polymerase using the Message Machine kit (Ambion, Austin, Tex.). […] RNA solutions (50-70 nl) were injected into oocytes for delivery of NR1100 (5 ng), NR1100:NR2A (1:10 ng), GluR1 (5 ng). GluR3 (5 ng), or GluR6 (20 ng). Oocytes were incubated in ND96 at 18-20° C. for 3-7 days prior to electrophysiological recording.
(§2) Steroid solutions were prepared as 70-100 mM frozen stocks in dimethyl sulfoxide (DMSO). The final DMSO concentration of all recording solutions was between 0.1% to 0.5% and was constant within an experiment.
(§3) Perfusion control and data acquisition were carried out using an automated oocyte electrophysiology workstation that was developed for the rapid collection of concentration-response data and real-time waveform analysis (Yaghoubi et al., Soc. Neurosci. Abstr. 20: 1109 (1995)). This system is implemented on a Macintosh IIci computer (Apple Computer, Cupertino, Calif.) equipped with MacA-DIOS II data acquisition and control hardware (GW Instruments, Somerville, Mass.). Drug application is controlled by the computer through a series of valves, using custom-written software based on the SuperScope II development environment, improving the efficiency and reproducibility of data collection. Experiments were carried out using an Axoclamp-2A voltage clamp amplifier (Axon Instruments, Foster City, Calif.) in two-electrode voltage clamp mode. Intracellular microelectrodes (1-3 MΩ) were filled with 3 M KCl. […] Membrane potential was clamped at −60 to −70 mV and stepped to −100 mV at the start of data acquisition unless otherwise stated. […] Current and voltage recordings were digitized at 100 Hz for analysis. GluR6 injected oocytes were treated for 10 min with 10 μg/ml concanavalin A to prevent fast desensitization.
(§4) Results are expressed as mean±S.E.M. Statistical comparisons were made using Student's t-test.

GluR3 AMPA receptor = target: T2, GluR3 AMPA receptor (Rattus norvegicus, UniProt P19492); assay: Kainate-induced currents, Xenopus oocytes injected with GluR3 cRNA; format: cell-based; conditions: GluR3; steroid 100 μM; 100 μM kainate; −100 mV
T2 construct: expressed in transfected cells; host or cells: Xenopus oocytes injected with GluR3 cRNA
From the text: as §1, §2, §3, §4

[2] = target: T3, NR1100+NR2A NMDA receptor (Rattus norvegicus, UniProt P35439+Q00959); assay: NMDA-induced currents, Xenopus oocytes, Example 1; format: cell-based; conditions: NR1100 + NR2A; steroid 100 μM; 100 μM NMDA; −100 mV
T3 construct: expressed in transfected cells; host or cells: Xenopus oocytes co-injected with NR1100 and NR2A cRNA
From the text: as §1, §2, §3, §4

GluR6 kainate receptor = target: T4, GluR6 kainate receptor (Rattus norvegicus, UniProt P42260); assay: Kainate-induced currents, Xenopus oocytes injected with GluR6 cRNA; format: cell-based; conditions: GluR6; steroid 100 μM; 10 μM kainate; −100 mV
T4 construct: expressed in transfected cells; host or cells: Xenopus oocytes injected with GluR6 cRNA (concanavalin A treated)
From the text: as §1, §2, §3, §4

Sequence of NR1010/NR2A (Q00959 23-1464, other chains not shown): as above

Compound	agonist Emax (NR1010/NR2A; absence of PS)	agonist nHill (NR1010/NR2A; presence of PS)	agonist Emax (NR1001/NR2A; absence of PS)	agonist Emax (NR1001/NR2A; presence of PS)	agonist Emax (NR1000/NR2A; absence of PS)	agonist Emax (NR1000/NR2A; presence of PS)	agonist Emax (NR1111/NR2A; absence of PS)	agonist Emax (NR1111/NR2A; presence of PS)	agonist Emax (NR1101/NR2A; absence of PS)	agonist Emax (NR1101/NR2A; presence of PS)	agonist Emax (NR1/NR2B (NR1100); +100 μM PS)	agonist nH (NR1/NR2B (NR1100); no PS)	agonist Emax (NR1100/NR2A; absence of PS)	agonist Emax (NR1100/NR2A; presence)	agonist nHill (NR1100/NR2A; presence)	agonist Emax (NR1011/NR2A; presence of PS)	agonist Emax (NR1/NR2D (NR1100); +100 μM PS)	agonist Emax (NR1/NR2D (NR1100); no PS)	agonist Emax (NR1/NR2C (NR1100); +100 μM PS)	agonist Emax (NR1/NR2A (NR1100); +100 μM PS)	further results
N[C@@H](CCC(=O)O)C(=O)O [L-glutamate]	1.48 ± 0.03	1.59 ± 0.15	2.10 ± 0.12	2.85 ± .26	1.75 ± 0.02	2.92 ± 0.03	1.87 ± 0.12	2.62 ± 0.27	1.77 ± 0.09	2.72 ± 0.07	1.34 ± 0.07	1.14 ± 0.10	1.50 ± 0.04	2.30 ± 0.21	0.98 ± 0.06	2.08 ± 0.21	0.80	1.10 ± 0.03	0.87	2.3 ± 0.2	agonist nHill (NR1010/NR2A; absence of PS): 1.32 ± 0.14; agonist nHill (NR1001/NR2A; presence of 100 mM PS): 1.57 ± 0.18; agonist nHill (NR1111/NR2A; absence of PS): 1.39 ± 0.02; agonist Emax (NR1/NR2B (NR1100); no PS): 1.23 ± 0.04; agonist nHill (NR1100/NR2A; absence of PS): 1.15 ± 0.04; agonist Emax (NR1011/NR2A; absence of PS): 1.59 ± 0.03; EC50 (NR1/NR2D (NR1100); read-out: agonist EC50, +100 μM PS): 37 nM; EC50 (NR1/NR2D (NR1100); read-out: agonist EC50, no PS): 25 nM; agonist Emax (NR1/NR2C (NR1100); no PS): 1.31 ± 0.02; EC50 (NR1/NR2C (NR1100); +100 μM PS): 60 nM; EC50 (NR1/NR2C (NR1100); no PS): 75 nM; agonist nH (NR1/NR2A (NR1100); +100 μM PS): 0.98 ± 0.06; agonist nH (NR1/NR2A (NR1100); no PS): 1.15 ± 0.04; agonist Emax (NR1/NR2A (NR1100); no PS, normalized to 200 μM NMDA plus 10 μM glycine): 1.50
Br.COc1ccc(-c2ccc(=N)n(CCCC(=O)O)n2)cc1 [SR-95531]	–	–	–	–	–	–	–	–	–	–	–	–	–	–	–	–	–	–	–	–	effect on NMDA-induced neuronal death [1]: no effect
NCC(=O)O [glycine]	1.51 ± 0.07	1.38 ± 0.10	1.89 ± 0.20	2.77 ± 0.40	1.48 ± 0.04	2.88 ± 0.27	1.93 ± 0.07	2.68 ± 0.16	1.63 ± 0.04	2.46 ± 0.23	1.63 ± 0.04	1.09 ± 0.04	1.52 ± 0.07	2.34 ± 0.09	1.03 ± 0.05	2.24 ± 0.29	0.74	1.22 ± 0.05	0.87	2.34	agonist Emax (NR1010/NR2A; presence of PS): 1.92 ± 0.19; agonist nHill (NR1000/NR2A; absence of PS): 0.90 ± 0.01; agonist nH (NR1/NR2B (NR1100); +100 μM PS): 1.15 ± 0.03; agonist nH (NR1/NR2D (NR1100); +100 μM PS): 0.95 ± 0.01; agonist nH (NR1/NR2C (NR1100); +100 μM PS): 1.11 ± 0.12; agonist nH (NR1/NR2A (NR1100); +100 μM PS): 1.03 ± 0.05
Dehydroepiandrosterone sulfate	–	–	–	–	–	–	–	–	–	–	–	–	–	–	–	–	–	–	–	–	Percentage change in kainate response (GluR1 AMPA receptor): −23 ± 3(3) %; Percentage change in kainate response (GluR3 AMPA receptor): −7 ± 1(4) %; Percentage change in NMDA response [2]: +8 ± 13(3) %; Percentage change in kainate response (GluR6 kainate receptor): −17 ± 5(3) %
